Test results from patent publication US8178699B2, “Modulators of CCR9 receptor and methods of use thereof” (Pfizer Inc., priority 2008, dated 2012).
Counter-ions that a name gives are not always drawn.

molecular target: T1, human CCR9 receptor (Homo sapiens, UniProt P51686); experiment: CCR9 FLIPR/FlexStation Assay (inhibition of TECK induced calcium mobilization); type: cell-based; details: CCR9 antagonist activity; TECK induced calcium mobilization in CCR9-Flp-CHO cells stably over expressing human CCR9; rhTECK at EC70; read-out: Binding IC50
T1 construct: expressed in transfected cells
T1 sequence (P51686 1-369): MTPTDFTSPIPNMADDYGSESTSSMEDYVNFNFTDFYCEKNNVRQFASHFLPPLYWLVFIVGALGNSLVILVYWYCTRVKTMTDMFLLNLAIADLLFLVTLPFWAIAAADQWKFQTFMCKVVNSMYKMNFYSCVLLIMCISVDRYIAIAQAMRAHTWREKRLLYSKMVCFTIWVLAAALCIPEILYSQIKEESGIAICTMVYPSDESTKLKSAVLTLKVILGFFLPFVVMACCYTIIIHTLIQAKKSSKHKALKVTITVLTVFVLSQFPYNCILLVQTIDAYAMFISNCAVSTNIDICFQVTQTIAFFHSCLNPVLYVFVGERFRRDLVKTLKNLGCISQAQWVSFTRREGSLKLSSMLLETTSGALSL
Text: Exemplary methods are described in US Publication Nos. US2004/0180892 and US2005/0049286, which are incorporated herein by reference. An exemplary assay for determining CCR9 antagonist activity of the compounds provided herein is CCR9 FLIPR/FlexStation Assay. In certain embodiments, the following protocol is used for the assay:
CCR9 FLIPR/FlexStation Assay Protocol
Calcium assay in FLIPR/FlexStation determines inhibitors of TECK induced calcium mobilization in CCR9-Flp-CHO cells that stably over express human CCR9 receptor. CCR9-Flp-CHO cells are seeded at 25,000 cells/well in a clear bottom, black wall 96-well plate (Greiner #655090) one day prior to assay. Cells are grown in a tissue culture incubator at 37° C. with 5% CO2 for 18 to 24 hours.
Wash buffer and dye loading buffer are prepared fresh each time the assay is performed. Wash buffer is prepared according to the following protocol: 20 ml 10×HBSS (Invitrogen Gibco #14065-056), 4 ml 1M HEPES (Sigma H3784), 174 ml sterile deionized water; then add 140 mg probenecid (Sigma P8761) dissolved in 2 ml 1M NaOH (Fisher S318) to solution and pH to 7.4. This wash buffer contains 1×HBSS, 20 mM HEPES and 2.5 mM probenecid. For one 96-well plate, dye loading buffer is prepared as following: 11 ml wash buffer, 44 μl Fluo-4/pluoronic acid mix (prepared from 22 μL aliquot of 2 mM Fluo-4 (Molecular Probes F14202, 1 mg/tube)+22 μl 20% pluronic F-127 (Molecular Probes P3000MP).
Cells are loaded with dye according to the protocol below:
1. Prepare wash buffer with 1×HBSS/HEPES at room temperature
2. Prepare loading buffer (keep in dark)
3. Aspirate culture media and wash with 100 μl wash buffer per well×1
4. Add 100 μl dye loading buffer to each well
5. Incubate at 37° C. for 30 minutes
6. Aspirate loading buffer
7. Wash with 100 μl wash buffer per well×3
8. Add 100 μl wash buffer per well
9. Incubate at 37° C. for 30 minutes
10. Assay plate with FLIPR or FlexStation
10 mM stock compounds in DMSO are prepared and diluted in DMSO to 1 mM. Compounds are diluted in wash buffer to make 8 point series dilutions containing same final concentration of DMSO (1%). Compounds are tested in duplicate wells for each point. Ligand rhTECK (R&D Systems 334-TK) was diluted to 6× of its EC70 with wash buffer. Appropriate amount of 6× ligand is added to each well. Data is analyzed using XLfit3 software to calculate IC50 value of antagonist activity for each compound.
CCR9 antagonist activity of exemplary compounds was determined using CCR9 FLIPR/FlexStation Assay as described in Section 4.4 and is provided in Table 1 below. The IC50 for the compounds are represented as follows: A≦100 nM; B>100-500 nM; C>500 nM.

First: Cc1cc(S(=O)(=O)Nc2ccsc2C(=O)O)ccc1N1CCCC1 [Example 32, 3-(3-methyl-4-(pyrrolidin-1-yl)phenylsulfonamido)thiophene-2-carboxylic acid, disodium salt]
Second: CC(C)(C)c1ccc(S(=O)(=O)Nc2ccsc2C(=O)O)c(N2CCCCC2)c1 [Example 47, 3-[4-tert-Butyl-2-(piperidin-1-yl)phenylsulfonamido]thiophene-2-carboxylic acid]
The IC50 of the first is higher: over 500 nM for the first, 100 to 500 nM for the second.

O=C(O)c1sccc1NS(=O)(=O)c1ccc2c(c1)CCC2 [Example 33, 3-(2,3-dihydro-1H-indene-5-sulfonamido)thiophene-2-carboxylic acid, disodium salt] and CC1(C)CCC(C)(C)c2cc(S(=O)(=O)Nc3ccsc3C(=O)O)ccc21 [Example 49, 3-(5,5,8,8-tetramethyl-5,6,7,8-tetrahydronaphthalene-2-sulfonamido)thiophene-2-carboxylic acid, disodium salt] cannot be ordered by IC50: over 500 nM for the first, over 500 nM for the second.

O=C(O)c1sccc1NS(=O)(=O)c1ccc(C2CCCCC2)cc1 [Example 34, 3-(4-cyclohexylphenylsulfonamido)thiophene-2-carboxylic acid, disodium salt] and O=C(O)c1sccc1NS(=O)(=O)c1ccc(C2CCCC2)cc1F [Example 36, 3-(4-cyclopentyl-2-fluorophenylsulfonamido)thiophene-2-carboxylic acid, disodium salt] cannot be ordered by IC50: 100 to 500 nM for the first, at most 100 nM for the second.

Going from O=C(O)c1sccc1NS(=O)(=O)c1ccc(F)cc1C1CCCC1 [Example 35, 3-(2-cyclopentyl-4-fluorophenylsulfonamido)thiophene-2-carboxylic acid, disodium salt] to CC(C)(C)c1ccc(S(=O)(=O)Nc2ccsc2C(=O)O)c(/C=C/C2CC2)c1 [Example 52, 3-[4-tert-butyl-2-(2-cyclopropylvinyl)phenylsulfonamido]thiophene-2-carboxylic acid, disodium salt], the IC50 falls from over 500 nM to at most 100 nM.

CC(C)c1ccc(S(=O)(=O)Nc2ccsc2C(=O)O)cc1 [Example 37, 3-[4-(iso-propylphenyl)sulfonamido]thiophene-2-carboxylic acid, disodium salt] and CCCCc1ccc(S(=O)(=O)Nc2ccsc2C(=O)O)cc1 [Example 38, 3-[4-(n-butylphenyl)sulfonamide]thiophene-2-carboxylic acid, disodium salt] cannot be ordered by IC50: 100 to 500 nM for the first, at most 100 nM for the second.

CCc1ccccc1-c1cccc(S(=O)(=O)Nc2ccsc2C(=O)O)c1 [Example 39, 3-(2′-ethylbiphenyl-3-ylsulfonamido)thiophene-2-carboxylic acid, disodium salt] and CCCOc1ccccc1-c1cccc(S(=O)(=O)Nc2ccsc2C(=O)O)c1 [Example 44, 3-(2′-propoxybiphenyl-3-ylsulfonamido)thiophene-2-carboxylic acid, disodium salt] cannot be ordered by IC50: over 500 nM for the first, over 500 nM for the second.

O=C(O)c1sccc1NS(=O)(=O)c1cccc(-c2ccccc2)c1 [Example 40, 3-(biphenyl-3-ylsulfonamido)thiophene-2-carboxylic acid, disodium salt] and CC(C)c1ccccc1-c1cccc(S(=O)(=O)Nc2ccsc2C(=O)O)c1 [Example 43, 3-(2′-isopropylbiphenyl-3-ylsulfonamido)thiophene-2-carboxylic acid, disodium salt] cannot be ordered by IC50: over 500 nM for the first, over 500 nM for the second.

Cc1cccc(C)c1-c1cccc(S(=O)(=O)Nc2ccsc2C(=O)O)c1 [Example 41, 3-(2′,6′-dimethylbiphenyl-3-ylsulfonamido)thiophene-2-carboxylic acid, disodium salt] and Cc1cc(C)cc(-c2cccc(S(=O)(=O)Nc3ccsc3C(=O)O)c2)c1 [Example 42, 3-(3′,5′-dimethylbiphenyl-3-ylsulfonamido)thiophene-2-carboxylic acid, disodium salt] cannot be ordered by IC50: over 500 nM for the first, over 500 nM for the second.

CC(C)(C)c1ccc(S(=O)(=O)Nc2ccsc2C(=O)O)c(-c2ccncc2Cl)c1 [Example 45, 3-[4-tert-Butyl-2-(3-chloropyridin-4-yl)phenyl-sulfonamido]thiophene-2-carboxylic acid] and CC(C)(C)c1ccc(S(=O)(=O)Nc2ccsc2C(=O)O)c(-c2cccc(Cl)c2)c1 [Example 53, 3-(5-tert-butyl-3′-chlorobiphenyl-2-ylsulfonamido)thiophene-2-carboxylic acid, disodium salt] cannot be ordered by IC50: over 500 nM for the first, over 500 nM for the second.

First: CC(C)(C)c1ccc(S(=O)(=O)Nc2ccsc2C(=O)O)c(-c2ccccc2)c1 [Example 46, 3-(5-tert-butylbiphenyl-2-ylsulfonamido)thiophene-2-carboxylic acid, disodium salt]
Second: CC(C)(C)c1ccc(S(=O)(=O)Nc2ccsc2C(=O)O)c(-c2cccc(F)c2)c1 [Example 54, 3-(5-tert-butyl-3′-fluorobiphenyl-2-ylsulfonamido)thiophene-2-carboxylic acid, disodium salt]
The IC50 of the first is higher: over 500 nM for the first, 100 to 500 nM for the second.

CCc1cc(C(C)(C)C)ccc1S(=O)(=O)Nc1ccsc1C(=O)O [Example 48, 3-(4-tert-butyl-2-ethylphenylsulfonamido)thiophene-2-carboxylic acid, disodium salt] and CCCc1cc(C(C)(C)C)ccc1S(=O)(=O)Nc1ccsc1C(=O)O [Example 56, 3-(4-tert-butyl-2-propylphenylsulfonamido)thiophene-2-carboxylic acid, disodium salt] cannot be ordered by IC50: at most 100 nM for the first, at most 100 nM for the second.

First: O=C(O)c1sccc1NS(=O)(=O)c1ccc(OC(F)(F)F)cc1Cl [Example 50, 3-[2-chloro-4-(trifluoromethoxy)phenylsulfonamido]thiophene-2-carboxylic acid, disodium salt]
Second: O=C(O)c1sccc1NS(=O)(=O)c1c(Cl)cc(C(F)(F)F)cc1Cl [Example 51, 3-[2,6-dichloro-4-(trifluoromethyl)phenylsulfonamido]thiophene-2-carboxylic acid, disodium salt]
The IC50 of the first is lower: at most 100 nM for the first, over 500 nM for the second. The first is the more potent here.

COC/C=C/c1cc(C(C)(C)C)ccc1S(=O)(=O)Nc1ccsc1C(=O)O [Example 55, 3-[4-tert-butyl-2-(3-methoxyprop-1-enyl)phenylsulfonamido]thiophene-2-carboxylic acid, disodium salt] and C=Cc1cc(C(C)(C)C)ccc1S(=O)(=O)Nc1ccsc1C(=O)O [Example 61, 3-(4-tert-butyl-2-vinylphenylsulfonamido)thiophene-2-carboxylic acid, disodium salt] cannot be ordered by IC50: 100 to 500 nM for the first, at most 100 nM for the second.

CC(C)(C)c1ccc(S(=O)(=O)Nc2ccsc2C(=O)O)c(CCC2CC2)c1 [Example 57, 3-[4-tert-Butyl-2-(2-cyclopropylethyl)phenylsulfonamido]thiophene-2-carboxylic acid, disodium salt] and CCCCCc1cc(C(C)(C)C)ccc1S(=O)(=O)Nc1ccsc1C(=O)O [Example 58, 3-(4-tert-butyl-2-pentylphenylsulfonamido)thiophene-2-carboxylic acid, disodium salt] cannot be ordered by IC50: at most 100 nM for the first, 100 to 500 nM for the second.

COCCCc1cc(C(C)(C)C)ccc1S(=O)(=O)Nc1ccsc1C(=O)O [Example 59, 3-[4-tert-butyl-2-(3-methoxypropyl)phenylsulfonamido]thiophene-2-carboxylic acid, disodium salt] and CC(C)(C)c1ccc(S(=O)(=O)Nc2ccsc2C(=O)O)c(-c2ccoc2)c1 [Example 60, 3-[4-tert-butyl-2-(furan-3-yl)-phenylsulfonamido]thiophene-2-carboxylic acid, disodium salt] fall in the same range of IC50: 100 to 500 nM for the first, 100 to 500 nM for the second.

In the case of Cc1cc(C(C)(C)C)cc(C)c1S(=O)(=O)Nc1ccsc1C(=O)O [Example 62, 3-(4-tert-butyl-2,6-dimethylphenylsulfonamido)thiophene-2-carboxylic acid, disodium salt], the IC50 is reported as over 500 nM.
